Source: patent US8048899B2, “Compounds which selectively modulate the CB2 receptor” (Boehringer Ingelheim International GmbH, priority 2008, dated 2011)
Like-named read-outs stand apart in the source and are kept apart here.

Key:
human CB2R = target: T1, human CB2R (Homo sapiens, UniProt P34972); experiment: CB2R mediated modulation of cAMP synthesis; type: cell-based
T1 construct: host or cells: CHO cells
Procedure: B. CB2R Mediated Modulation of cAMP Synthesis:
Compounds of the invention are evaluated for their CB2 agonist or inverse agonistic activity in accordance with the following experimental method.
(§1) CHO cells expressing human CB2R (Euroscreen) are plated at a density of 5000 cells per well in 384 well plates and incubated overnight at 37° C. After removing the media, the cells are treated with test compounds diluted in stimulation buffer containing 1 mM IBMX, 0.25% BSA and 10 uM Forskolin. The assay is incubated for 30 minutes at 37° C. Cells are lysed and the cAMP concentration is measured using DiscoverX-XS cAMP kit, following the manufacturer's protocol. In this setting, agonists will decrease forskolin induced production of cAMP while inverse agonists will further increase forskolin induced production of cAMP. EC50 of agonists are calculated as follows. The maximal amount of cAMP produced by forskolin compared to the level of cAMP inhibited by 1 uM CP55940 is defined as 100%. […] Data is analyzed using a four-parameter logistic model. (Model 205 of XLfit 4.0).

human CB1R = target: T2, human CB1R (Homo sapiens, UniProt P21554); experiment: CB1R mediated modulation of cAMP synthesis; type: cell-based
T2 construct: host or cells: CHO cells
Procedure: C. CB1R Mediated Modulation of cAMP Synthesis:
Compounds of the invention are evaluated for their CB1 agonist or inverse agonistic activity in accordance with the following experimental method.
as §1, with “CB1R” for “CB2R”

[1] = CHO cells expressing human CB2R, inhibition of forskolin-stimulated cAMP synthesis, read-out: CB2 EC50
[2] = CHO cells expressing human CB1R, inhibition of forskolin-stimulated cAMP synthesis, read-out: CB1 EC50

T1 sequence (P34972 whole entry): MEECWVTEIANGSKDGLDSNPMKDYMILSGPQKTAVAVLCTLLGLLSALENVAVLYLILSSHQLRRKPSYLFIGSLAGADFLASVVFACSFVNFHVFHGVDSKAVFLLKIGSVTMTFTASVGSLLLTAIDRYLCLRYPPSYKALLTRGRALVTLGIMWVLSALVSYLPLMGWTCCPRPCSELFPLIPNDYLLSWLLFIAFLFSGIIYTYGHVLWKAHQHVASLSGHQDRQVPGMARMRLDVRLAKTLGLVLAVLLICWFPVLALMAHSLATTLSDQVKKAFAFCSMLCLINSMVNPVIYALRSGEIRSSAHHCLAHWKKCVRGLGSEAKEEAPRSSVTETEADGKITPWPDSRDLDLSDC
T2 sequence (P21554 whole entry): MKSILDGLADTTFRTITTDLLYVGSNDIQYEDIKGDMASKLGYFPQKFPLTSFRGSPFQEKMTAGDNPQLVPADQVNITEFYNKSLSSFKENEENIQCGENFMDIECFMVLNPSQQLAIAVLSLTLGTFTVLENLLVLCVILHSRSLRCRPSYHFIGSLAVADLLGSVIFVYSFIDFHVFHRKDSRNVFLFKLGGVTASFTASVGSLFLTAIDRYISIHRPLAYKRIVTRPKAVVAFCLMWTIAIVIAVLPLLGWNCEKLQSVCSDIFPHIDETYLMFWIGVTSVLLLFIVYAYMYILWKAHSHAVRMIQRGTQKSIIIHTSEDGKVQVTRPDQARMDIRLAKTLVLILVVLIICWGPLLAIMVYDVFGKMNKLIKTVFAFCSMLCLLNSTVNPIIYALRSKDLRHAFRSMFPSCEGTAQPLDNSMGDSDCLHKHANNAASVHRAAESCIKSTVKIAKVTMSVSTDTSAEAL

| SMILES | EC50 (human CB2R; [1]) | EC50 (human CB1R; [2]) | EC50 (human CB2R) | EC50 (human CB1R) |
| --- | --- | --- | --- | --- |
| CC(C)(CO)c1cc(NC(=O)C(C)(C)S(=O)(=O)CC2CCOCC2)on1 | 39 nM | > 50000 nM | – | – |
| CC(C)(CO)c1cc(NC(=O)C(C)(C)S(=O)(=O)C2CCOCC2)on1 | – | – | 11 nM | > 50000 nM |
| CC(C)(CO)c1cc(NC(=O)C(C)(C)S(=O)(=O)N2CCC2)on1 | 288 nM | > 20000 nM | – | – |
| CC(C)(CO)c1cc(NC(=O)C(C)(C)S(=O)(=O)CCCC(F)(F)F)on1 | 15 nM | > 20000 nM | – | – |
| COc1ccc(-c2nnc(NC(=O)C(C)(C)S(=O)(=O)CC3(C)CCOCC3)[nH]2)cc1 | 186 nM | > 20000 nM | – | – |
| CC(C)(C(=O)Nc1nnc(-c2ccc(OC(F)(F)F)cc2)[nH]1)S(=O)(=O)CC1CCOCC1 | 337 nM | > 20000 nM | – | – |
| CC(C)(C(=O)Nc1nnc(-c2ccc(OC(F)(F)F)cc2)[nH]1)S(=O)(=O)C1CCOCC1 | 194 nM | > 20000 nM | – | – |
| CC(C)(CO)c1cc(NC(=O)C(C)(C)S(=O)(=O)c2cccc(F)c2F)on1 | 172 nM | > 20000 nM | – | – |
| CCOc1ccc(-c2nnc(NC(=O)C(C)(C)S(=O)(=O)C3CCOCC3)[nH]2)cc1 | 208 nM | > 50000 nM | – | – |
| CC(C)(CO)c1cc(NC(=O)C(C)(C)S(=O)(=O)CC2CCOCC2)no1 | 208 nM | > 50000 nM | – | – |
| CC(C)(C(=O)Nc1cc(C2(CO)CC2)no1)S(=O)(=O)C1CCOCC1 | 117 nM | > 50000 nM | – | – |
| COCC(C)(C)c1cc(NC(=O)C(C)(C)S(=O)(=O)CC2CCOCC2)no1 | 137 nM | > 20000 nM | – | – |
| CC(C)(C(=O)Nc1cc(C2(CO)CC2)no1)S(=O)(=O)CCCC(F)(F)F | 247 nM | > 50000 nM | – | – |
| CC(C)(C(=O)Nc1nnc(-c2ccc(O)cc2)[nH]1)S(=O)(=O)c1ccc(F)cc1 | – | – | 4 nM | > 20000 nM |
| COCC(C)(C)c1cc(NC(=O)C(C)(C)S(=O)(=O)CC2CC2)on1 | 120 nM | > 50000 nM | – | – |
| COCC(C)(C)c1cc(NC(=O)C(C)(C)S(=O)(=O)C2CCCC2)on1 | – | – | 15 nM | > 20000 nM |
| CC(C)(C(=O)Nc1cc(C2(CO)CCCC2)no1)S(=O)(=O)CC1CCC1 | – | – | 25 nM | > 20000 nM |
| CC(C)(C(=O)Nc1cc(C2(CO)CCCCC2)no1)S(=O)(=O)CC1CCC1 | – | – | 67 nM | > 20000 nM |
| CC(C)(CO)c1cc(NC(=O)C(C)(C)S(=O)(=O)CCC(F)(F)F)on1 | 105 nM | > 50000 nM | – | – |
| CCOc1ccc(-c2n[nH]c(NC(=O)C(C)(C)S(=O)(=O)CC3CC3)n2)cc1 | 488 nM | > 50000 nM | – | – |
| COCC(C)(C)c1cc(NC(=O)C(C)(C)S(=O)(=O)CC2CC2)no1 | 121 nM | > 50000 nM | – | – |
| CC(C)(CO)c1cc(NC(=O)C(C)(C)S(=O)(=O)C2CCCC2)no1 | 222 nM | ≥ 50000 nM | – | – |
| CC(C)(CO)c1cc(NC(=O)C2(S(=O)(=O)C3CCOCC3)CCC2)on1 | 212 nM | > 50000 nM | – | – |
| CC(C)(C(=O)Nc1nc(-c2cccc(O)c2)n[nH]1)S(=O)(=O)CC1CC1 | 283 nM | > 50000 nM | – | – |
| CC(C)(C(=O)Nc1nc(-c2cccc(O)c2)n[nH]1)S(=O)(=O)C1CCOCC1 | 130 nM | > 50000 nM | – | – |
| CC[C@H](C)S(=O)(=O)C(C)(C)C(=O)Nc1cc(C(C)(C)CO)no1 | 118 nM | > 50000 nM | – | – |
